Data on one compound can be found in patent publication US20210253518A1, “KINASE INHIBITOR” (NISSAN CHEMICAL CORPORATION, priority 2018, published 2021).

One experiment concerns the target T1, LATS1 (Homo sapiens, UniProt O95835).
T1 construct: purchased Carna Biosciences
T1 sequence (O95835 589-1130 limits assumed): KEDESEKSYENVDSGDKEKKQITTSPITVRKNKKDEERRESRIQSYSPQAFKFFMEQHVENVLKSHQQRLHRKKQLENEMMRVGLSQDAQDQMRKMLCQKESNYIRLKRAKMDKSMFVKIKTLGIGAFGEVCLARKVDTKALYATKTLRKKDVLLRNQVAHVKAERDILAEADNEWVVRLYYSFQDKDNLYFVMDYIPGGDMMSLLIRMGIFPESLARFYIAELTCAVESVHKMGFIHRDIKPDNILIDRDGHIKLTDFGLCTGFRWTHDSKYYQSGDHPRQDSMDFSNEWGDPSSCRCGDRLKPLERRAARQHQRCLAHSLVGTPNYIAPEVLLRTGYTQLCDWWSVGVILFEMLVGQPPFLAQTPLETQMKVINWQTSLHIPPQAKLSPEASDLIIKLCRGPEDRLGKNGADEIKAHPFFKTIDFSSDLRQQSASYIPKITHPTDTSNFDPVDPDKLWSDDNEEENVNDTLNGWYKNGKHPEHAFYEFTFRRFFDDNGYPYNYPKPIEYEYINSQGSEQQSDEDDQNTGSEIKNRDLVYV
Kind of experiment: Kinase Assay method (Fluorospark Kinase/ADP Multi-Assay Kit). Type of experiment: biochemical. The procedure:
(§1) For compound k-1:B-1 (racemate), GA-002A, GA-002B, GA-005A and GA-005B, inhibitory activity evaluation (calculation of IC50) was performed on LATS1 and LATS2 (manufactured by Carna Biosciences). The activity was measured using the Kinase Assay method described below. The compounds were added such that the test concentration of k-1:B-1 (racemate), GA-002A, GA-002B, GA-005A and GA-005B was in 8 steps (10 μM, 1 μM, 100 nM, […], 10 nM, 3 nM, 1 nM, 0.3 nM) from the final concentration of 10 μM to 0.3 nM.
(§2) As the analysis method of the data, the mean signal of the control well containing reaction components other than the evaluation compound was set to 0% inhibition, the mean signal without enzyme addition was set to 100% inhibition, and the inhibition rate was calculated from the mean signal of 2 wells of each test substance test. IC50 value was calculated using EXSUS (version 7.1.6, manufactured by CAC EXICARE Corporation).
(§3) 2 μL of a compound of the present invention solution at 2.5-fold concentration, 1 μL of substrate at 5-fold concentration (SGKtide: NH2—CKKRNRRLSVA-COOH, manufactured by SignalChem), ATP (manufactured by Sigma-Aldrich), MgCl2 (manufactured by FUJIFILM Wako Pure Chemical Corporation) solution (final concentration 10 μM, 400 μM or 5 mM), and 2 μL of kinase solution at 2.5-fold concentration (final concentration of LATS1 or LATS2 5 μg/mL), each prepared with assay buffer (20 mM HEPES, 0.01% Triton X-100, 2 mM DTT, pH 7.5), were mixed in the wells of a polypropylene 384-well plate (manufactured by Greiner Bio-One, #784900) and reacted at room temperature for 5 hr. Successively, 5 μL detection solution (Fluorospark (registered trade mark)Kinase/ADP Multi-Assay Kit; manufactured by FUJIFILM Wako Pure Chemical Corporation) was added, and the mixture was reacted at room temperature 30 min. Successively, 5 μL of a reaction quenching liquid (Fluorospark (registered trade mark) Kinase/ADP Multi-Assay Kit; manufactured by FUJIFILM Wako Pure Chemical Corporation) was added to discontinue the reaction. Thereafter, the ADP concentration of the reaction solution was quantified by EnSpire (manufactured by PerkinElmer) to detect the kinase reaction.

The target of a further experiment is T2, LATS2 (Homo sapiens, UniProt Q9NRM7).
T2 construct: purchased Carna Biosciences
T2 sequence (Q9NRM7 553-1088 limits assumed): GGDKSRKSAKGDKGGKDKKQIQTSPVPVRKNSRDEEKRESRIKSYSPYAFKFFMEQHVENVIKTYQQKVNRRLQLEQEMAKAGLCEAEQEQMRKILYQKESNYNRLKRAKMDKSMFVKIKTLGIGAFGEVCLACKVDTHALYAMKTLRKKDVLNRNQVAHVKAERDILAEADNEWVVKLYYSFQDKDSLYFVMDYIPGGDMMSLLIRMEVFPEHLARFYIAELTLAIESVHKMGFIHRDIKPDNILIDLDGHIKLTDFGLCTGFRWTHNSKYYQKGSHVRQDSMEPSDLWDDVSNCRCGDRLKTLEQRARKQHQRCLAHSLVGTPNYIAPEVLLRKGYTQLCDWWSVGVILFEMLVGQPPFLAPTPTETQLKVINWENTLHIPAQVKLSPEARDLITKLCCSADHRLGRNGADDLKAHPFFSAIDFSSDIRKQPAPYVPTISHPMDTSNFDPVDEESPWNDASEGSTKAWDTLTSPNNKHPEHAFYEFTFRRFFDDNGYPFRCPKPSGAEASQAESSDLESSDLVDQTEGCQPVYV
The experiment is described as above. Type of experiment: biochemical. The protocol:
as §1, §2, §3

In experiment [1] the test system is YAP (phospho-S127 and total). Kind of experiment: YAP phosphorylation inhibitory action in SKOV3 cells (HTRF, YAP-total kit / YAP phospho-S127 kit). Type of experiment: cell-based, human. Particulars: 10 μM, 1 hr, Non-treatment as 100%. The procedure: Human ovarian cancer cell line SKOV3 (manufactured by DS Pharma Biomedical Co., Ltd) was precultured (single layer culture) in a 15% FBS-containing McCoy's 5a medium (manufactured by Sigma Ltd. Aldrich). The above-mentioned cells in the logarithmic growth phase were washed with PBS, a 0.25% (w/v) trypsin-1 mmol/L ethylenediaminetetraacetic acid (EDTA) solution (manufactured by Fujifilm Wako Pure Chemical Corporation) was added, and adherent cells were detached by incubating at 37° C. for 3 min. The above-mentioned medium was added and the mixture was centrifuged and resuspended in the same medium.
According to the method of patent document (WO 2014/017513), a composition of 10% FBS-containing DMEM medium (Phenol-red free, manufactured by FUJIFILM Wako Pure Chemical Corporation) containing 0.015% (w/v) deacylated gellan gum (KELCOGEL CG-LA, manufactured by SANSHO Co., Ltd.) was prepared using FCeM-series Preparation Kit (manufactured by FUJIFILM Wako Pure Chemical Corporation). Then, various cells prepared above were suspended in the above-mentioned medium composition (3D conditions) added with deacylated gellan gum or a medium without the addition (2D conditions), and seeded on a 50 μL/well (manufactured by Corning Incorporated, 96 well flat bottom plate, #3585, 2D conditions) or 25 μL/well (manufactured by Corning Incorporated, 96 well low adhesion flat bottom plate, #3474) at 100000 cells/well. The plate was allowed to stand at 37° C. in a 5% CO2 incubator, and the compound of the present invention diluted with the medium at 2 or 6 times the final concentration, DMSO, or the medium alone was added to the plate 3 hr after the seeding at 50 μL/well (2D conditions) or 5 μL/well (3D conditions) to make the final concentration of each compound 10 μM. After culture at 37° C. in a 5% CO2 incubator for 1 hr, the supernatant was aspirated, supplemented Lysis buffer (1-fold concentration, manufactured by Cisbio, YAP-total kit or YAP phospho-S127 kit) (50 μL) was added under 2D conditions, and supplemented Lysys buffer (4-fold concentration) (10 μL) was added to the culture supernatant under 3D conditions, and the mixture was stirred by a plate shaker for 30 min. Thereafter, the plate was centrifuged, 16 μL of the supernatant was transferred to a 384-well white plate (Corning, #4512), and each antibody solution (pYAP d2 antibody or Total-YAP d2 antibody, and pYAP Cryptate antibody or Total-YAP Cryptate antibody) included in the kit was added at 4 μL/well in total, and the mixture was allowed to stand at room temperature overnight. As a blank control, pYAP Cryptate antibody or Total-YAP Cryptate antibody alone was added to cells free of stimulation with compound and the mixture was treated in the same manner (Non-treatment). The next day, the wavelengths at 665 nm and 615 nm were measured in the HTRF mode of EnVision (manufactured by PerkinElmer).
The obtained signal was calculated as follows. Ratio=signal (665 nm)/signal (615 nm)×10000, ΔR=Signal(Ratio)−Background fluorescence, and the relative value with respect to ΔR of the compound non-addition group (Non-treatment) as 100% was calculated, and the phosphorylated YAP amount or total YAP amount by each compound was evaluated.
Background: In TR-FRET formats the signal depends on donor and acceptor labels being close together.

Setting [2] is: Kinase Assay method, 8 steps 10 μM to 0.3 nM.

In the case of `CC/C(=N\NC(=O)[C@@H](C)Nc1cccc(O)c1)c1ccc(O)c(C)c1O` [GA-005A], the inhibition at 0.1 µM on LATS1 (100 nM, read-out: LARS1 inhibitory rate (%)) was determined as 96%; at LATS2 (100 nM, read-out: LARS2 inhibitory rate (%)) it was 99%. Further, the inhibition at 1 µM is 97% at LATS1 (1000 nM, read-out: LARS1 inhibitory rate (%)) and 100% at LATS2 (1000 nM, read-out: LARS2 inhibitory rate (%)). Moreover, the half-inhibitory concentration (IC50) at LATS1 (setting [2]) amounted to 4.79 nM; on LATS2 (setting [2]), 7.39 nM. Further, the “phosphorylated YAP (%)” value in experiment [1] (2D condition) and in experiment [1] (3D condition) was 10% each time. Besides, the figures for the “total YAP (%)” value in experiment [1] (2D condition) and in experiment [1] (3D condition) were 91% and 107%, respectively.

A word on the IC50: it is the concentration needed to halve the response being measured. The low end stands for inhibition by little substance, the high end for a need for much substance.
